Where two headings read alike, the source gives them in different places.
What was measured:
NF-κB = NF-κB assay: THP1-NF-κB-LUC cells, LPS-stimulated secreted luciferase; assay type: cell-based; settings: THP1-NF-κB-LUC cells, read-out: IC50 (NF-κB assay)
How it was run: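 THP1-NF-κB-LUC cells (25k/well) were pretreated with compounds for 2 h, then stimulated with LPS (10 ng/mL) for 18 h. Secreted luciferase was measured and normalized to vehicle, and IC50 was fitted from the concentration series.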

TNF release = test: TNF assay: TNF release from LPS-stimulated human PBMCs (TNF ELISA); assay type: cell-based; settings: PBMC, read-out: IC50 (TNF assay)
How it was run: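 TNF ELISA on supernatants read-out; cells were 10k human PBMCs/well given LPS at 10 ng/mL for 18 h after a 2 h compound pre-incubation across a concentration series, with IC50 derived for suppression of TNF secretion.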

[1] = LPS-stimulated human PBMCs, TNF ELISA
[2] = compounds 2 hours before LPS (10 ng/mL) for 18 hours, secreted luciferase
[3] = human PBMCs, compounds 2 hours before LPS (10 ng/ml) for 18 hours, supernatant TNF ELISA

| SMILES | IC50 (NF-κB; LPS-stimulated) | IC50 (TNF release; [1]) | IC50 (NF-κB; [2]) | IC50 (TNF release; [3]) |
| --- | --- | --- | --- | --- |
| Cc1ccc(S(=O)(=O)c2c(O)[nH]c3ncccc3c2=O)cc1F [BC19322] |  |  | 1000 to 10000 nM | > 10 µM |
| Nc1cccc2cc(S(=O)(=O)c3ccccc3)cnc12 [BC19324] |  |  | > 10000 nM | 0.1 to 1 µM |
| CNc1cccc2cc(S(=O)(=O)c3ccccc3)cnc12 [BC19325] |  |  | > 10000 nM | 1 to 10 µM |
| CN(C)c1cccc2cc(S(=O)(=O)c3ccccc3)cnc12 [BC19326] |  |  | > 10000 nM | 1 to 10 µM |
| O=S(=O)(c1cccc(F)c1)c1nc(-c2ccccc2)oc1[S+]([O-])C1CCCCC1 (centres unmarked) [BC19327] | 1000 to 10000 nM | 1 to 10 µM |  |  |
| O=S(=O)(c1cccc(F)c1)c1nc(-c2ccccc2)oc1S(=O)(=O)C1CCCCC1 [BC19328] | < 100 nM | 0.1 to 1 µM |  |  |
| CS(=O)(=O)c1oc(-c2ccccc2)nc1S(=O)(=O)c1ccc(Cl)cc1 [BC19329] | < 100 nM | < 0.1 µM |  |  |
| O=S(=O)(CC1CC1)c1oc(-c2ccccc2)nc1S(=O)(=O)c1ccc(Cl)cc1 [BC19330] | 100 to 1000 nM | 0.1 to 1 µM |  |  |
| COCCS(=O)(=O)c1oc(-c2ccccc2)nc1S(=O)(=O)c1ccc(Cl)cc1 [BC19331] | < 100 nM | < 0.1 µM |  |  |
| COc1cccc(-c2nc(S(=O)(=O)c3ccc(Cl)cc3)c(S(=O)(=O)C(C)C)[nH]2)c1 [BC19336] | > 10000 nM | > 10 µM |  |  |
| COCC[S+]([O-])c1[nH]c(-c2cccc(OC)c2)nc1S(=O)(=O)c1ccc(Cl)cc1 (centres unmarked) [BC19337] | > 10000 nM | > 10 µM |  |  |
| C[S+]([O-])c1[nH]nc(N)c1S(=O)(=O)c1ccccc1 (centres unmarked) [BC19338] | > 10000 nM | > 10 µM |  |  |

More lines, now with the values ahead:

| IC50 (NF-κB; LPS-stimulated) | IC50 (TNF release; [1]) | IC50 (NF-κB; [2]) | IC50 (TNF release; [3]) | SMILES |
| --- | --- | --- | --- | --- |
| < 100 nM | > 10 µM |  |  | CNC(=O)N1CCC(C(=O)Nc2ccc3nc(-c4ccc(F)cc4)c(-c4ccc(F)cc4)nc3c2)CC1 [BC19311] |
| < 100 nM | 1 to 10 µM |  |  | CS(=O)(=O)N1CCC(C(=O)Nc2ccc3nc(-c4ccc(F)cc4)c(-c4ccc(F)cc4)nc3c2)CC1 [BC19312] |
| 100 to 1000 nM | 1 to 10 µM |  |  | C=CC(=O)Nc1ccc2nc(-c3ccc(F)cc3)c(-c3ccc(F)cc3)nc2c1 [BC19313] |
| < 100 nM | 1 to 10 µM |  |  | CC#CC(=O)Nc1ccc2nc(-c3ccc(F)cc3)c(-c3ccc(F)cc3)nc2c1 [BC19314] |
| 100 to 1000 nM | > 10 µM |  |  | C[C@H](Cl)C(=O)Nc1ccc2nc(-c3ccc(F)cc3)c(-c3ccc(F)cc3)nc2c1 [BC19315] |
| 100 to 1000 nM | > 10 µM |  |  | CN1CCN(C(=O)c2ccc3nc(-c4ccc(F)cc4)c(-c4ccc(C#N)cc4)nc3c2)CC1 [BC19316] |
| < 100 nM | > 10 µM |  |  | CN1CCN(C(=O)c2ccc3nc(-c4ccc(F)cc4)c(-c4ccc(Cl)cc4)nc3c2)CC1 [BC19317] |
| < 100 nM | > 10 µM |  |  | CN1CCN(C(=O)c2ccc3nc(-c4ccc(F)cc4)c(-c4ccc(F)cc4F)nc3c2)CC1 [BC19318] |
| 1000 to 10000 nM | > 10 µM |  |  | CCc1ccc(-c2nc3cc(C(=O)N4CCN(C)CC4)ccc3nc2-c2ccc(F)cc2)cc1 [BC19319] |
| > 10000 nM | > 10 µM |  |  | O=C(O)c1cccc2nc(-c3ccc(F)cc3)c(-c3ccc(F)cc3)nc12 [BC19320] |
| 1000 to 10000 nM | > 10 µM |  |  | C#CCNC(=O)c1cccc2nc(-c3ccc(F)cc3)c(-c3ccc(F)cc3)nc12 [BC19321] |
|  |  | > 10000 nM | > 10 µM | O=c1c(S(=O)(=O)c2ccc(F)cc2)c(O)[nH]c2ncccc12 [BC19323] |
| 100 to 1000 nM | < 0.1 µM |  |  | CCC[S+]([O-])c1oc(-c2ccc(F)cc2)nc1S(=O)(=O)c1ccc(Cl)cc1 (centres unmarked) [BC19332] |
| < 100 nM | < 0.1 µM |  |  | COCCS(=O)(=O)c1oc(-c2ccc(F)cc2)nc1S(=O)(=O)c1ccc(Cl)cc1 [BC19333] |
| > 10000 nM | 1 to 10 µM |  |  | CC(C)S(=O)(=O)c1sc(-c2ccccc2)nc1S(=O)(=O)c1ccc(F)c(F)c1 [BC19334] |
| > 10000 nM | > 10 µM |  |  | Cc1ccc(Cl)cc1NC(=O)CS(=O)(=O)c1[nH]c(-c2ccccc2)nc1S(=O)(=O)c1ccccc1 [BC19335] |

— patent publication US12606528B2, “Methods and materials for inhibiting NF-kB activity” (University of Pittsburgh - Of the Commonwealth System of …, priority 2019, dated 2026)
